Values quoted from earlier work as cited in patent US8568753B2, “Delivery system” (Starpharma Pty Limited, priority 2005, dated 2013).

Tested on: herpes simplex virus type 2 (HSV-2), Strain G
Settings: previous studies

For nonoxynol-9, the “relative susceptibility to HSV-2 infection vs control animals” value is given as 29.7 times and the “animals infected with HSV-2” value (low-dose inoculum) is given as 29 out of 42.
